Reference: paper PMC6600574 (Molecules, 2019)

Columns and labels:
CYP 19A1 (aromatase) = molecular target: T1, CYP 19A1 (aromatase) (Homo sapiens, UniProt P11511); assay: Aromatase inhibition assay, tritiated water release, placental microsomes; format: in vitro ADME; details: CYP 19A1, substrate androstendione, verbascoside 4-500 µM
T1 construct: from tissue; host or cells: human placental microsomes
T1 sequence (P11511 1-503): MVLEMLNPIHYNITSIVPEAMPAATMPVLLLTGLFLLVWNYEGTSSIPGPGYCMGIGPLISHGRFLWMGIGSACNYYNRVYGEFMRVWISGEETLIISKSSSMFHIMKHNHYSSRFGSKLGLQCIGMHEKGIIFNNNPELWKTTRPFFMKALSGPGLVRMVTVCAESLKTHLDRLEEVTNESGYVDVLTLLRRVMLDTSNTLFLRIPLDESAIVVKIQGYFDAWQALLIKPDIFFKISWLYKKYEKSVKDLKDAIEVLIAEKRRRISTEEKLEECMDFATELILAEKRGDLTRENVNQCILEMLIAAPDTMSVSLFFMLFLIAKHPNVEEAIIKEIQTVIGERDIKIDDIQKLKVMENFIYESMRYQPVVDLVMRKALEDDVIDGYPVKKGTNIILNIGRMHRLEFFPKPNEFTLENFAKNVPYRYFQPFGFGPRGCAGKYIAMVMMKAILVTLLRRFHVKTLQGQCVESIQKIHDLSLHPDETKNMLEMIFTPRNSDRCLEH
Method: The relative remaining aromatase activity was calculated by measuring the tritiated water (^3H2O) formed from the aromatization of ^3H-Androst-4-ene,3,17-dione. […] Twenty percent NADPH regenerative system was added to initiate the reaction. Reactions were terminated by the addition of 33% trichloroacetic acid. The supernatant was investigated for tritiated water formed in a scintillation mixture (Optiphase Hisafe 2, Perkin Elmer) using a Wallac microbeta 1450 TriLux liquid scintillation and luminescence counter (PerkinElmer).

[1] = DPPH radical scavenging assay; format: biochemical; details: DPPH in ethanol, 30 min
Method: Ascorbic acid was serially diluted to a concentration range of 0.78–100 µg/mL. Ethanol (10%) was used as a blank. Ninety microliters of a […] DPPH (2,2-diphenyl-1-picrylhydrazyl) in ethanol were added to each well. The plates were incubated for 30 min and covered in a layer of foil. Color controls (negative controls) were prepared in the exact same manner as above, but distilled water was added to each well instead of DPPH. The absorbances were measured at a wavelength of 515 nm using a BIO-TEK Power-Wave XS multiplate reader (BIO-TEK Instruments, Winooski, VT, USA). From the absorbances an IC50 value was determined.

Microsomal IC50 (µM) with 95% Confidence Intervals (CYP 19A1 (aromatase)): No inhibition
Microsomal IC50 (µM) with 95% Confidence Intervals (CYP 19A1 (aromatase); listed as verbascoside): did not inhibit
IC50 [1]: 2500 ± 20 nM
SMILES: C[C@@H]1O[C@@H](O[C@@H]2[C@@H](O)[C@H](OCCc3ccc(O)c(O)c3)O[C@H](CO)[C@H]2OC(=O)/C=C/c2ccc(O)c(O)c2)[C@H](O)[C@H](O)[C@H]1O [Verbascoside]
